Data on 15 compounds can be found in BindingDB's records for doi:10.1016/j.bioorg.2015.08.001 (Universiti Teknologi Mara (Uitm), 2015).

Carbonic anhydrase 2, sequence (P00921 whole entry): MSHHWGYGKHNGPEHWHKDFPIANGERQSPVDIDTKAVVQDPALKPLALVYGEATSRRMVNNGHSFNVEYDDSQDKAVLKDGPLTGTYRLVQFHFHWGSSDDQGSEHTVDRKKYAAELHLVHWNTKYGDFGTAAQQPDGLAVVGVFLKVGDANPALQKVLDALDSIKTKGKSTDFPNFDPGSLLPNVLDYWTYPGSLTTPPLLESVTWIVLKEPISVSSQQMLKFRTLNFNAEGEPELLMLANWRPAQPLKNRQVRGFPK

The test concerns the target Carbonic anhydrase 2 (Bos taurus, UniProt P00921). As to the kind of experiment: Carbonic Anhydrase (CA) II Inhibition Assay. The conditions noted are these: pH 7.2. As for the experimental part:
This was assay performed using buffer containing Tris and HEPES at the pH of 7.2-7.9 and a total concentration of 20 mM. 96-well plates were filled with 140 µL of Tris-HEPES solution, 20 µL of bovine erythrocyte carbonic anhydrase II solution (0.1-0.2 mg/2000 mL), and 20 µL of 0.7 mM para-nitrophenyl acetate (diluted in ethanol). Test compounds were incubated at 25-28 °C for 15 min prior to addition of para-nitrophenyl acetate, which starts the reaction. The reaction was allowed to take place for 30 min at 25-28 °C. All compounds tested in triplicate at different concentration. Amount of product that forms during the reaction monitored at 400 nm after 30 min.
With `S=C(Nc1ccc(C(c2c[nH]c3ccccc23)c2c[nH]c3ccccc23)cc1)Nc1cccc(Br)c1`, it took 131 µM to reach half-maximal inhibition (IC50).

`Cc1cccc2c(C(c3ccc(NC(=S)Nc4ccc([N+](=O)[O-])cc4)cc3)c3c[nH]c4c(C)cccc34)c[nH]c12` [1-(4-(Bis(7-methyl-1H-indol-3-yl)methyl)phenyl)-3-(4-nitrophenyl)thiourea (3u)] gave a half-inhibitory concentration (IC50) of 44.1 µM.

Turning to `O=[N+]([O-])c1ccc(NC(=S)Nc2cccc(C(c3c[nH]c4ccccc34)c3c[nH]c4ccccc34)c2)cc1` [1-(4-Nitrophenyl)-3-(3-(di(1H-indol-3-yl)methyl)phenyl)thiourea (4d)], the IC50 turned out to be 32.9 µM.

In the case of `CCOC(=O)NC(=S)Nc1ccc(C(c2c[nH]c3ccc(Br)cc23)c2c[nH]c3ccc(Br)cc23)cc1` [Name not given], the midpoint of inhibition, the IC50, lay at 70.4 µM.

As for `CCOC(=O)NC(=S)Nc1ccc(C(c2c[nH]c3ccc(Cl)cc23)c2c[nH]c3ccc(Cl)cc23)cc1` [Name not given], inhibition was half-maximal at 137 µM (IC50).

`O=[N+]([O-])c1ccc(NC(=S)Nc2ccc(C(c3c[nH]c4ccc(Br)cc34)c3c[nH]c4ccc(Br)cc34)cc2)cc1` [Name not given] had an IC50 of 32.3 µM.

As to `O=[N+]([O-])c1ccc(NC(=S)Nc2ccc(C(c3c[nH]c4ccc(Cl)cc34)c3c[nH]c4ccc(Cl)cc34)cc2)cc1` [Name not given], 39.7 µM corresponded to half-maximal inhibition (IC50).

On to `O=[N+]([O-])c1ccc(NC(=S)Nc2ccc(C(c3c[nH]c4ccccc34)c3c[nH]c4ccccc34)cc2)cc1` [Name not given], for which the IC50 stood at 45.9 µM.

`S=C(Nc1ccc(C(c2c[nH]c3ccc(Br)cc23)c2c[nH]c3ccc(Br)cc23)cc1)Nc1cc(Cl)ccc1Cl` [Name not given] had an IC50 of 33 µM.

In the case of `S=C(Nc1ccc(C(c2c[nH]c3ccc(Br)cc23)c2c[nH]c3ccc(Br)cc23)cc1)Nc1cccc(Br)c1` [Name not given], 30.1 µM corresponded to half-maximal inhibition (IC50).

As for `S=C(Nc1ccc(C(c2c[nH]c3ccc(Br)cc23)c2c[nH]c3ccc(Br)cc23)cc1)Nc1cccc(Cl)c1` [Name not given], the IC50 came to 42.9 µM.

As for `S=C(Nc1ccc(C(c2c[nH]c3ccc(Cl)cc23)c2c[nH]c3ccc(Cl)cc23)cc1)Nc1cc(Cl)ccc1Cl` [Name not given], the IC50 came out at 139 µM.

With `S=C(Nc1ccc(C(c2c[nH]c3ccc(Cl)cc23)c2c[nH]c3ccc(Cl)cc23)cc1)Nc1cccc(Cl)c1` [Name not given], the IC50 was determined as 54.4 µM.

`S=C(Nc1ccc(C(c2c[nH]c3ccccc23)c2c[nH]c3ccccc23)cc1)Nc1cc(Cl)ccc1Cl` [Name not given] displayed an IC50 of 68.3 µM.

In the case of `S=C(Nc1ccc(C(c2c[nH]c3ccccc23)c2c[nH]c3ccccc23)cc1)Nc1cccc(Cl)c1` [Name not given], the IC50 stood at 112 µM.
